# Legend:
# Type in all cases: cell-based
# [1] = tested on: MEL-28 (monolayer culture of a human melanoma); test: Cytotoxic activity screening, MEL-28 cells; conditions: Homo sapiens, SK-MEL-28, 72 h, three days of incubation, Crystal Violet, approximate IC50
# Method: (§1) Cell Cultures. Cells were maintained in logarithmic phase of growth in Eagle's Minimum Essential Medium, with Earle's Balanced Salts, with 2.0 mM L-glutamine, with non-essential amino acids, without sodium bicarbonate (EMEM/neaa); supplemented with 10% Fetal Calf Serum (FCS), 10^−2 M sodium bicarbonate and 0.1 g/l penicillin-G+streptomycin sulfate.
# (§2) A simple screening procedure has been carried out to determine and compare the antitumour activity of these compounds, using an adapted form of the method described by Bergeron et al (1984). The tumour cell line employed have been P-388 (suspension culture of a lymphoid neoplasm from DBA/2 mouse), A-549 (monolayer culture of a human lung carcinoma), HT-29 (monolayer culture of a human colon carcinoma) and MEL-28 (monolayer culture of a human melanoma).
# (§3) A-549, HT-29 and MEL-28 were seeded into 16 mm wells at 2×10^4 cells per well in 1 ml aliquots of MEM 10FCS containing the indicated concentration of drug. A separate set of cultures without drug was seeded as control growth to ensure that cells remained in exponential phase of growth. All determinations were carried out in duplicate. After three days of incubation at 37° C., 10% CO2 in a 98% humid atmosphere, the wells were stained with 0.1% Crystal Violet. An approximately IC50 was determined by comparing the growth in wells with drug to the growth in wells control.
# [2] = tested on: A-549 (monolayer culture of a human lung carcinoma); test: Cytotoxic activity screening, A-549 cells; conditions: Homo sapiens, A549, 72 h, three days of incubation, Crystal Violet, approximate IC50
# Method: as §1
# as §3, with “A” for “A-549, HT-29 and MEL-28 were seeded into 16 mm wells at 2×10^4 cells per well in 1 ml aliquots of MEM 10FCS containing the indicated concentration of drug. A”
# [3] = tested on: HT-29 (monolayer culture of a human colon carcinoma); test: Cytotoxic activity screening, HT-29 cells; conditions: Homo sapiens, HT-29, 72 h, three days of incubation, Crystal Violet, approximate IC50
# Method: as §1
# as §3, with “A” for “A-549, HT-29 and MEL-28 were seeded into 16 mm wells at 2×10^4 cells per well in 1 ml aliquots of MEM 10FCS containing the indicated concentration of drug. A”
# [4] = tested on: P-388 (suspension culture of a lymphoid neoplasm from DBA/2 mouse); test: Cytotoxic activity screening, P-388 cells; conditions: Mus musculus, P388, 72 h, three days of incubation, approximate IC50 vs control growth
# Method: as §1, §2
# P-388 cell were seeded into 16 mm wells at 1×10^4 cells per well in 1 ml aliquots of MEM 5FCS containing the indicated concentration of drug. A separate set of cultures without drug was seeded as control growth to ensure that cells remained in exponential phase of growth. All determinations were carried out in duplicate.
# DU-145 = test: Cytotoxic activity screening, DU-145 cells; conditions: Homo sapiens, DU-145, DU-145 cells
# Method: [The source words this procedure for another cell line and reports this cell line under the same test.] as §1, §2
# Examples of biological activities of the compounds described in the present application are in Table IV (IC50 (ng/mL)) on the following pages.
SMILES,IC50 [1],IC50 [2],IC50 [3],IC50 [4],IC50 (DU-145)
COc1c(C)cc2c(c1O)[C@@H]1C3[C@@H]4SC[C@H](NC(=O)c5ccccc5)C(=O)OC[C@@H](c5c6c(c(C)c(OC(C)=O)c54)OCO6)N3[C@@H](O)[C@H](C2)N1C (stereo partly shown) [Compound 4g],0.5 ng/mL,0.5 ng/mL,0.5 ng/mL,0.1 ng/mL,0.5 ng/mL
COc1c(C)cc2c(c1O)[C@@H]1C3[C@@H]4SC[C@H](NC(=O)/C=C/c5ccc(C(F)(F)F)cc5)C(=O)OC[C@@H](c5c6c(c(C)c(OC(C)=O)c54)OCO6)N3[C@@H](O)[C@H](C2)N1C (stereo partly shown) [Compound 4i],1 ng/mL,1 ng/mL,1 ng/mL,1 ng/mL,1 ng/mL
COc1c(C)cc2c(c1O)[C@@H]1C3[C@@H]4SC[C@H](NC(=O)CCCCC5SCC6NC(=O)NC65)C(=O)OC[C@@H](c5c6c(c(C)c(OC(C)=O)c54)OCO6)N3[C@@H](O)[C@H](C2)N1C (stereo partly shown) [Compound 4k],10 ng/mL,10 ng/mL,10 ng/mL,10 ng/mL,10 ng/mL
COc1c(C)cc2c(c1O)[C@@H]1C3[C@@H]4SC[C@H](NC(=O)CCC(=O)O)C(=O)OC[C@@H](c5c6c(c(C)c(OC(C)=O)c54)OCO6)N3[C@@H](O)[C@H](C2)N1C (stereo partly shown) [Compound 4l],100 ng/mL,100 ng/mL,100 ng/mL,100 ng/mL,100 ng/mL
COc1c(C)cc2c(c1O)[C@@H]1C3[C@@H]4SCC(NCc5ccccc5)C(=O)OC[C@@H](c5c6c(c(C)c(OC(C)=O)c54)OCO6)N3[C@@H](O)[C@H](C2)N1C (stereo partly shown) [Compound 4n],0.5 ng/mL,0.5 ng/mL,0.5 ng/mL,0.5 ng/mL,0.5 ng/mL
COc1c(C)cc2c(c1O)[C@@H]1C3[C@@H]4SCC(NC(=O)C(N)C(C)C)C(=O)OC[C@@H](c5c6c(c(C)c(OC(C)=O)c54)OCO6)N3[C@@H](O)[C@H](C2)N1C (stereo partly shown) [Compound 4p],0.5 ng/mL,0.5 ng/mL,0.5 ng/mL,0.5 ng/mL,0.5 ng/mL
COc1c(C)cc2c(c1O)[C@@H]1C3[C@@H]4SC[C@H](NC(=O)C(NC(C)=O)C(C)C)C(=O)OC[C@@H](c5c6c(c(C)c(OC(C)=O)c54)OCO6)N3[C@@H](O)[C@H](C2)N1C (stereo partly shown) [Compound 4q],1 ng/mL,1 ng/mL,1 ng/mL,1 ng/mL,1 ng/mL
COc1c(C)cc2c(c1O)[C@@H]1C3[C@@H]4SC[C@H](NC(=O)C(NC(=O)/C=C/c5ccccc5)C(C)C)C(=O)OC[C@@H](c5c6c(c(C)c(OC(C)=O)c54)OCO6)N3[C@@H](O)[C@H](C2)N1C (stereo partly shown) [Compound 4r],0.5 ng/mL,0.5 ng/mL,0.5 ng/mL,0.5 ng/mL,0.5 ng/mL
COc1c(C)cc2c(c1O)[C@@H]1C3[C@@H]4SC[C@H](NC(=O)C(NC(=O)C(C)N)C(C)C)C(=O)OC[C@@H](c5c6c(c(C)c(OC(C)=O)c54)OCO6)N3[C@@H](O)[C@H](C2)N1C (stereo partly shown) [Compound 4s],1 ng/mL,1 ng/mL,1 ng/mL,1 ng/mL,1 ng/mL
COc1c(C)cc2c(c1O)[C@@H]1C3[C@@H]4SC[C@H](NC(=O)C(NC(=O)C(C)NC(C)=O)C(C)C)C(=O)OC[C@@H](c5c6c(c(C)c(OC(C)=O)c54)OCO6)N3[C@@H](O)[C@H](C2)N1C (stereo partly shown) [Compound 4t],10 ng/mL,100 ng/mL,10 ng/mL,100 ng/mL,10 ng/mL
COc1c(C)cc2c(c1O)[C@@H]1C3[C@@H]4SC[C@H](NC(=O)C(NC(=O)C(C)NC(=O)/C=C/c5ccccc5)C(C)C)C(=O)OC[C@@H](c5c6c(c(C)c(OC(C)=O)c54)OCO6)N3[C@@H](O)[C@H](C2)N1C (stereo partly shown) [Compound 4u],5 ng/mL,5 ng/mL,5 ng/mL,5 ng/mL,5 ng/mL

# Source: patent US7919493B2, “Anititumoral ecteinascidin derivatives” (Pharma Mar, S.A., priority 2001, dated 2011)
